Legend:
3T3-L1 pre-adipocytes = assay: Glucose uptake (2-NBDG) by 3T3-L1 pre-adipocytes; type: cell-based
Procedure: To validate the relevance of this C. elegans data to a mammalian system, F43 was tested for glucose uptake in 3T3-L1 pre-adipocytes using a fluorescent derivative of glucose, 2-NBD-deoxyglucose (Moon et al., “A Novel Microtubule Destabilizing Entity from Orthogonal Synthesis of Triazine Library and Zebrafish Embryo Screening,” J. Am. Chem. Soc. 124:11608-11609 (2002), which is hereby incorporated by reference in its entirety).
3T3-L1 pre-adipocytes, were grown in DMEM (Dulbecco's Modified Eagle Medium Media) containing 1% antibiotics, and 10% heat-inactivated newborn calf serum under a humidified 5% CO2 atmosphere. The cells were seeded in 48-well plates and allowed to adhere to the dish overnight. Cultures at 70-80% confluence were used for the chemical exposures. […] Fluorescence intensity was measured in a fluorescence micro-plate reader at λex=466 nm and λem=540 nm.
FIGS. 3A-B show the up-regulation of glucose uptake by 3T3-L1 pre-adipocytes upon treatment with Insulin, the TGBz compound F43, and the TGBz compound E3 as a control. […] Following incubation with the dye for 15 min. at 37° C., cells were washed with ice-cold PBS, and the fluorescence intensity was measured. The uptake of the fluorescent 2-NBDG was visualized by a Leica 2000 fluorescence microscope with excitation at 488 nm and long-pass detection at 530 nm and measured by a fluorescence microplate reader. […]

rabbit muscle GAPDH = biological target: T1, rabbit muscle GAPDH (Oryctolagus cuniculus, UniProt P46406); assay: In vitro GAPDH inhibition assay (NADH fluorescence); type: biochemical; conditions: 0.2 mM GAP, 0.1 mM NAD+, pH 8.6; read-out: IC50 against GAPDH
T1 construct: host or cells: rabbit muscle
Procedure: Rabbit muscle GAPDH and glyceraldehydes-3-phosphate (GAP) were employed. The assay was performed in black polypropylene 96-well micro-titer plates using a 100 μl solution of 100 mM sodium phosphate at pH 8.6, 5 mM EDTA, 0.2 mM GAP, 0.1 mM NAD^+, 0.5 units of GAPDH in the presence of varying concentrations of compound. The reaction was initiated by addition of GAP. Amounts of produced NADH was monitored by a fluorescence plate reader, at λex=340 nm, λem=460 nm (ex=excitation, em=emission wave length) (FIG. 7).

[1] = tested on: Daf-2 mutant C. elegans strain e1370; assay: Dauer formation screen in Daf-2 mutant C. elegans; type: in vivo; conditions: L2 stage worms soaked in 100 μM compound, warmed to 25° C.
Procedure: The Daf-2 mutant C. elegans strain e1370 was grown on nematode growth media (NGM) agar plates with E. coli (OP50) under standard conditions at 16° C. C. elegans mutant strains were obtained from the Caenorhabditis Genetics Center. Twenty synchronized early L2 animals grown at 16° C. were soaked in 96-well plates containing 100 μM of compounds/2% OP50 culture/M9 buffer, and then incubated at 25° C. for 4 days.
TG-Bz library (1120 members) compounds were screened in L2 stage worms grown at 16° C. by soaking in a 100 μM chemical solution and were warmed up to 25° C., in which 100% of untreated Daf-2 mutant larvae enter dauer within 24 hours. […] E3 is the TGBz control compound (FIG. 2C).

T1 sequence (P46406 2-333 limits assumed): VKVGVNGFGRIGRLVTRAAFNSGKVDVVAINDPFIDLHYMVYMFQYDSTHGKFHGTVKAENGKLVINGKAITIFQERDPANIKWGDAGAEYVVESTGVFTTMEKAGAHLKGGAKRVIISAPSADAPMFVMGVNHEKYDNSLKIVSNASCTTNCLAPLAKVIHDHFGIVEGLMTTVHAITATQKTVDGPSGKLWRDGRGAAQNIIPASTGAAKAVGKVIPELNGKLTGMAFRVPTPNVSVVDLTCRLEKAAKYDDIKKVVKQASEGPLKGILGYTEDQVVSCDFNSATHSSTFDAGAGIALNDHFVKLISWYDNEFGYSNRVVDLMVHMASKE

Compound: O=C(NCCOCCOCCNc1nc(NCCc2ccc(O)c(O)c2)nc(Nc2ccccc2)n1)c1ccccc1 [F43]
- glucose uptake (2-NBDG fluorescence) (3T3-L1 pre-adipocytes; 15 min incubation, 100 μM 2-NBDG, compound up to 10 μM): dose dependent glucose uptake was observed
- glucose uptake on co-treatment with insulin (3T3-L1 pre-adipocytes; co-treatment with insulin (100 nM), 15 min): synergistic effect
- IC50 (rabbit muscle GAPDH): 4 µM
- effect on dauer formation [1]: inhibits dauer formation

Source: patent US7592451B2, “Treatment for diabetes and obesity as well as method of screening compounds useful for such treatments” (New York University, priority 2005, dated 2009)
